Experimental data reported in EP0900210B1, “ANTIVIRALLY ACTIVE HETEROCYCLIC AZAHEXANE DERIVATIVES” (Novartis AG, priority 1996, dated 1997).
pIC50: −log10 of the molar value.

Molecular target: T1, HIV-1-protease (Human immunodeficiency virus type 1 group M subtype B, UniProt P04585)
T1 construct: made in house
Assay: Inhibition of HIV-1-protease with icosapeptide substrate […] (HPLC)
Assay type: biochemical
Settings: icosapeptide RRSNQVSQNYPIVQNIQGRR 122 µM, 20 mM MES pH 6.0, one hour at 37°C; read-out: IC50
Protocol: The inhibitory action of the compounds of formula I on the proteolytic activity of HIV-1-protease can be shown, for example, according to known procedures (see A. D. Richards et al., J. Biol. Chem. 265(14), 7733-7736 (1990)). In that method the inhibition of the action of HIV-1-protease (preparation: see S. Billich et al., J. Biol. Chem. 263(34), 17905-17908 (1990)) is measured in the presence of the icosapeptide […] (a synthetic substrate of HIV-1-protease, prepared by peptide synthesis in accordance with known procedures (see J. Schneider et al., Cell 54, 363-368 (1988)), which contains as substrate analogue one of the cleavage sites of the gag-precursor protein (natural substrate of HIV-1-protease). That substrate and its cleavage products are analysed by high performance liquid chromatography (HPLC).
The test compound is dissolved in dimethyl sulfoxide. The enzymatic test is carried out by adding suitable dilutions of the inhibitor in 20 mM β-morpholinoethanesulfonic acid (MES) buffer pH 6.0 to the test mixture. That mixture consists of the above-mentioned icosapeptide (122 µM) in 20 mM MES-buffer pH 6.0. 100 µl are used per test batch. The reaction is started by the addition of […] of HIV-1-protease solution and is stopped after one hour's incubation at 37°C by the addition of 10 µl of 0.3M HClO4. After centrifugation of the sample at 10 000 x g for 5 minutes, 20 µl of the resulting supernatant are applied to a 125 x 4.6 mm Nucleosil® C18-5m-HPLC column (reversed-phase material supplied by Macherey & Nagel, Düren, FRG, based on silica gel that has been charged with C18alkyl chains). The uncleaved icosapeptide and its cleavage products are eluted from the column by means of the following gradient: 100 % eluant 1 → 50 % eluant 1 + 50 % eluant 2 (eluant 1: 10 % acetonitrile, 90 % H2O, 0.1 % trifluoroacetic acid (TFA); eluant 2: 75 % acetonitrile, 25 % H2O, 0.08 % TFA) for 15 minutes, throughflow rate 1 ml/min. The quantification of the eluted peptide fragments is carried out by measuring the peak height of the cleavage product at 215 nm.
Using the test system described above with the icosapeptide […], the IC50 values given below are obtained for the following Examples: […]

Compound | pIC50
1-[4-(Pyrazin-2-yl)-phenyl]-4(S)-hydroxy-2-[N-(N-methoxycarbonyl-(L)-valyl)amino]-5(S)-[N-(N-methoxycarbonyl-(L)-tert-leucyl)amino]-6-phenyl-2-azahexane [Example 44] | 7.54

Same assay, conditions: icosapeptide […] 122 µM, 20 mM MES pH 6.0, one hour at 37°C; read-out: IC50

Compound | pIC50
COC(=O)N[C@H](C(=O)N[C@@H](Cc1ccccc1)[C@@H](O)CN(Cc1ccc(-c2nnnn2C)cc1)NC(=O)[C@@H](NC(=O)OC)C(C)(C)C)C(C)(C)C [27 (1-methyl-1H-tetrazolyl isomer), 1-[4-(1-methyl-1H-tetrazol-5-yl)-phenyl]-4(S)-hydroxy-5(S)-2,5-bis[N-(N-methoxycarbonyl-(L)-tert-leucyl)amino]-6-phenyl-2-azahexane] | 7.29
COC(=O)N[C@H](C(=O)N[C@@H](Cc1ccccc1)[C@@H](O)CN(Cc1ccc(-c2cncs2)cc1)NC(=O)[C@@H](NC(=O)OC)C(C)C)C(C)C [Example 1, 1-[4-(Thiazol-5-yl)-phenyl]-4(S)-hydroxy-5(S)-2,5-bis[N-(N-methoxycarbonyl-(L)-valyl)amino]-6-phenyl-2-azahexane] | 7.49
COC(=O)N[C@H](C(=O)NN(Cc1ccc(-c2cncs2)cc1)C[C@H](O)[C@H](Cc1ccccc1)NC(=O)[C@@H](NC(=O)OC)C(C)(C)C)C(C)C [Example 2, 1-[4-(Thiazol-5-yl)-phenyl]-4(S)-hydroxy-2-N-(N-methoxycarbonyl-(L)-valyl)-amino-5(S)-N-(N-methoxycarbonyl-(L)-tert-leucyl)amino-6-phenyl-2-azahexane] | 7.85
COC(=O)N[C@H](C(=O)N[C@@H](Cc1ccccc1)[C@@H](O)CN(Cc1ccc(-c2cncs2)cc1)NC(=O)[C@@H](NC(=O)OC)C(C)(C)C)C(C)(C)C [Example 3, 1-[4-(Thiazol-5-yl)-phenyl]-4(S)-hydroxy-5(S)-2,5-bis[N-(N-methoxycarbonyl-(L)-tert-leucyl)amino]-6-phenyl-2-azahexane] | 7.39
CC[C@H](C)[C@H](NC(=O)OC)C(=O)NN(Cc1ccc(-c2cncs2)cc1)C[C@H](O)[C@H](Cc1ccccc1)NC(=O)[C@@H](NC(=O)OC)C(C)(C)C [Example 4, 1-[4-(Thiazol-5-yl)-phenyl]-4(S)-hydroxy-2-N-(N-methoxycarbonyl-(L)-iso-leucyl)amino-5(S)-N-(N-methoxycarbonyl-(L)-tert-leucyl)amino-6-phenyl-2-azahexane] | 7.42
COC(=O)N[C@@H](CSC)C(=O)NN(Cc1ccc(-c2cncs2)cc1)C[C@H](O)[C@H](Cc1ccccc1)NC(=O)[C@@H](NC(=O)OC)C(C)(C)C [Example 5, 1-[4-(Thiazol-5-yl)-phenyl]-4(S)-hydroxy-2-N-(N-methoxycarbonyl-(L)-S-methylcysteinyl)amino-5(S)-N-(N-methoxycarbonyl-(L)-tert-leucyl)amino-6-phenyl-2-azahexane] | 7.40
CCOC(=O)N[C@H](C(=O)NN(Cc1ccc(-c2cncs2)cc1)C[C@H](O)[C@H](Cc1ccccc1)NC(=O)[C@@H](NC(=O)OC)C(C)(C)C)C(C)C [Example 6, 1-[4-(Thiazol-5-yl)-phenyl]-4(S)-hydroxy-2-N-(N-ethoxycarbonyl-(L)-valyl)-amino-5(S)-N-(N-methoxycarbonyl-(L)-tert-leucyl)amino-6-phenyl-2-azahexane] | 7.66
COC(=O)N[C@H](C(=O)N[C@@H](Cc1ccccc1)[C@@H](O)CN(Cc1ccc(-c2cncs2)cc1)NC(=O)[C@@H](NC(=O)OC)C(C)(C)C)C(C)C [Example 7, 1-[4-(Thiazol-5-yl)-phenyl]-4(S)-hydroxy-2-N-(N-methoxcarbonyl-(L)-tert-leucyl)amino-5(S)-N-(N-methoxycarbonyl-(L)-valyl)amino-6-phenyl-2-azahexane] | 7.89
CCOC(=O)N[C@H](C(=O)NN(Cc1ccc(-c2cncs2)cc1)C[C@H](O)[C@H](Cc1ccccc1)NC(=O)[C@@H](NC(=O)OC)C(C)C)C(C)C [Example 8, 1-[4-(Thiazol-5-yl)-phenyl]-4(S)-hydroxy-2-N-(N-ethoxycarbonyl-(L)-valyl)-amino-5(S)-N-(N-methoxycarbonyl-(L)-valyl)amino-6-phenyl-2-azahexane] | 8.00
CC[C@H](C)[C@H](NC(=O)OC)C(=O)NN(Cc1ccc(-c2cncs2)cc1)C[C@H](O)[C@H](Cc1ccccc1)NC(=O)[C@@H](NC(=O)OC)C(C)C [Example 9, 1-[4-(Thiazol-5-yl)-phenyl]-4(S)-hydroxy-2-N-(N-methoxycarbonyl-(L)-isoleucyl)amino-5(S)-N-(N-methoxycarbonyl-(L)-valyl)amino-6-phenyl-2-azahexane] | 7.72
COC(=O)N[C@@H](CSC)C(=O)NN(Cc1ccc(-c2cncs2)cc1)C[C@H](O)[C@H](Cc1ccccc1)NC(=O)[C@@H](NC(=O)OC)C(C)C [Example 10, 1-[4-(Thiazol-5-yl)-phenyl]-4(S)-hydroxy-2-N-(N-methoxycarbonyl-(L)-S-methylcysteinyl)amino-5(S)-N-(N-methoxycarbonyl-(L)-valyl)amino-6-phenyl-2-azahexane] | 7.70
CC[C@H](C)[C@H](NC(=O)OC)C(=O)N[C@@H](Cc1ccccc1)[C@@H](O)CN(Cc1ccc(-c2cncs2)cc1)NC(=O)[C@@H](NC(=O)OC)C(C)(C)C [Example 11, 1-[4-(Thiazol-5-yl)-phenyl]-4(S)-hydroxy-2-N-(N-methoxycarbonyl-(L)-tert-leucyl)amino-5(S)-N-(N-methoxycarbonyl-(L)-iso-leucyl)amino-6-phenyl-2-azahexane] | 7.43
CC[C@H](C)[C@H](NC(=O)OC)C(=O)N[C@@H](Cc1ccccc1)[C@@H](O)CN(Cc1ccc(-c2cncs2)cc1)NC(=O)[C@@H](NC(=O)OC)C(C)C [Example 12, 1-[4-(Thiazol-5-yl)-phenyl]-4(S)-hydroxy-2-N-(N-methoxycarbonyl-(L)-valyl)amino-5(S)-N-(N-methoxycarbonyl-(L)-iso-leucyl)amino-6-phenyl-2-azahexane] | 7.70
CC[C@H](C)[C@H](NC(=O)OC)C(=O)N[C@@H](Cc1ccccc1)[C@@H](O)CN(Cc1ccc(-c2cncs2)cc1)NC(=O)[C@@H](NC(=O)OC)[C@@H](C)CC [Example 13, 1-[4-(Thiazol-5-yl)-phenyl]-4(S)-hydroxy-5(S)-2,5-bis[N-(N-methoxycarbonyl-(L)-iso-leucyl)amino]-6-phenyl-2-azahexane] | 7.49
CCOC(=O)N[C@H](C(=O)NN(Cc1ccc(-c2cncs2)cc1)C[C@H](O)[C@H](Cc1ccccc1)NC(=O)[C@@H](NC(=O)OC)[C@@H](C)CC)C(C)C [Example 14, 1-[4-(Thiazol-5-yl)-phenyl]-4(S)-hydroxy-2-N-(N-ethoxycarbonyl-(L)-valyl)-amino-5(S)-N-(N-methoxycarbonyl-(L)-iso-leucyl)amino-6-phenyl-2-azahexane] | 7.51
CC[C@H](C)[C@H](NC(=O)OC)C(=O)N[C@@H](Cc1ccccc1)[C@@H](O)CN(Cc1ccc(-c2cncs2)cc1)NC(=O)[C@H](CSC)NC(=O)OC [Example 15, 1-[4-(Thiazol-5-yl)-phenyl]-4(S)-hydroxy-2-N-(N-methoxycarbonyl-(L)-S-methylcysteinyl)amino-5(S)-N-(N-methoxycarbonyl-(L)-iso-leucyl)amino-6-phenyl-2-azahexane] | 7.30
COC(=O)N[C@H](C(=O)N[C@@H](Cc1ccccc1)[C@@H](O)CN(Cc1ccc(-c2nccs2)cc1)NC(=O)[C@@H](NC(=O)OC)C(C)(C)C)C(C)(C)C [Example 16, 1-[4-(Thiazol-2-yl)-phenyl]-4(S)-hydroxy-5(S)-2,5-bis[N-(N-methoxycarbonyl-(L)-tert-leucyl)amino]-6-phenyl-2-azahexane] | 7.48
COC(=O)N[C@H](C(=O)N[C@@H](Cc1ccccc1)[C@@H](O)CN(Cc1ccc(-c2nccs2)cc1)NC(=O)[C@@H](NC(=O)OC)C(C)(C)C)C(C)C [Example 17, 1-[4-(Thiazol-2-yl)-phenyl]-4(S)-hydroxy-2-N-(N-methoxycarbonyl-(L)-tert-leucyl)amino-5(S)-N-(N-methoxycarbonyl-(L)-valyl)amino-6-phenyl-2-azahexane] | 7.74
CC[C@H](C)[C@H](NC(=O)OC)C(=O)NN(Cc1ccc(-c2nccs2)cc1)C[C@H](O)[C@H](Cc1ccccc1)NC(=O)[C@@H](NC(=O)OC)C(C)C [Example 18, 1-[4-(Thiazol-2-yl)-phenyl]-4(S)-hydroxy-2-N-(N-methoxycarbonyl-(L)-iso-leucyl)amino-5(S)-N-(N-methoxycarbonyl-(L)-valyl)amino-6-phenyl-2-azahexane] | 7.60
